Structures are written as SMILES. Like-named read-outs stand apart in the source and are kept apart here.

In assay [1] the test system is Phytophthora infestans—PHYTIN. The assay can be described thus: whole plant or invertebrate. It is filed as in vivo. Conditions: Phytophthora, in Solanum lycopersicum, 24 h, read-out: PHYTIN in vivo 1 Day Protectant.
The subject of assay [2] is Leptosphaeria nodorum—LEPTNO. Nature of the assay: Glume Blotch of Wheat, in vivo whole plant, 24 Hour Protectant. The settings on record: for pest or weed control at 100 ppm: Leptosphaeria, read-out: LEPTNO in vivo 1 Day Protectant.
The next assay has as its system Ustilago maydis (USTIMA). Nature of the assay: microbe, parasite or virus in culture. It is filed as cell-based. The settings on record: Mycosarcoma maydis, read-out: USTIMA in vitro Growth Inhibition.
Assay [3] deals with Rhizoctonia solani (RHIZSO). Nature of the assay: microbe, parasite or virus in culture. The settings on record: Rhizoctonia solani, read-out: RHIZSO in vitro Growth Inhibition. It is filed as cell-based.
Assay [4] concerns Magnaporthe grisea (Pyricularia oryzae—PYRIOR). The assay can be described thus: microbe, parasite or virus in culture. In kind it is cell-based. Conditions: Pyricularia oryzae, read-out: PYRIOR in vitro Growth Inhibition.
The subject of assay [5] is Mycosphaerella graminicola (Septoria tritici—SEPTTR). Nature of the assay: In vitro fungal growth inhibition, Mycosphaerella graminicola (SEPTTR). It is filed as cell-based. The settings on record: Zymoseptoria tritici, read-out: SEPTTR in vitro Growth Inhibition.
For another assay, the system named is Erysiphe graminis—ERYSGT. Nature of the assay: Powdery Mildew of Wheat, in vivo whole plant, 24 Hour Protectant. Conditions: Erysiphe, read-out: ERYSGT in vivo 1 Day Protectant.
In assay [6] the test system is Stagonospora nodorum (Leptosphaeria nodorum—LEPTNO). Nature of the assay: In vitro fungal growth inhibition, Stagonospora nodorum (LEPTNO). It is filed as cell-based. Conditions: Leptosphaeria, read-out: LEPTNO in vitro Growth Inhibition.
The test system of assay [7] is Puccinia recondita—PUCCRT. Nature of the assay: Brown Rust of Wheat, in vivo whole plant, 24 Hour Protectant. The settings on record: for pest or weed control at 100 ppm: Puccinia, read-out: PUCCRT in vivo 1 Day Protectant.
The next assay deals with Septoria tritici—SEPTTR. The assay can be described thus: Leaf Blotch of Wheat, in vivo whole plant, 24 Hour Protectant. Conditions: for pest or weed control at 100 ppm: Zymoseptoria tritici, 24 h, read-out: SEPTTR in vivo 1 Day Protectant.
Assay [8] deals with Phytophthora infestans (PHYTIN). The assay can be described thus: microbe, parasite or virus in culture. In kind it is cell-based. The settings on record: Phytophthora infestans, read-out: PHYTIN in vitro Growth Inhibition.
Where [9] appears, read: wheat plants sprayed at 100 ppm, inoculated after 24 hours, control of fungal infection vs untreated plants.
Setting [10] is: 100 ppm spray, wheat, 24 hour protectant, control of fungal infection vs untreated plants.
Where [11] appears, read: 100 ppm spray, wheat, 24 hour protectant, % control of fungal infection vs untreated plants.
Setting [12] is: 100 ppm spray, 24 hour protectant, wheat, control of fungal infection vs untreated plants.

Consider `O=C(Nc1ccc(Oc2ccccc2C(F)(F)F)cc1)c1nc(Br)ccc1O` [Compound 497], for which the pest or weed control at 100 ppm is less than 25% in [1]; 25 to 74% in assay [2] (setting [9]); less than 25% in the assay with Erysiphe graminis—ERYSGT (setting [9]); 25 to 74% in assay [7] (setting [9]); 25 to 74% in the assay on Septoria tritici—SEPTTR (setting [9]). Further, the inhibition at 25 ppm (with Ustilago maydis (USTIMA); in assay [3]; in [4]; in assay [5] (25 ppm in the growth medium); in assay [6] (25 ppm in the growth medium); in assay [8]) was less than 80% each time.

In the case of `COc1ccnc(C(=O)Nc2cccc(Oc3ccc(C)cc3)c2)c1O` [Compound 414], the pest or weed control at 100 ppm was 25 to 74% in assay [1]; less than 25% in [2] (setting [10]); less than 25% in the assay on Erysiphe graminis—ERYSGT (setting [10]); 25 to 74% in assay [7] (setting [10]); less than 25% with Septoria tritici—SEPTTR (setting [10]). The inhibition at 25 ppm in the assay on Ustilago maydis (USTIMA) was less than 80%; in assay [3], less than 80%; in assay [4], more than 80%; in assay [5] (25 ppm in growth medium), more than 80%; in [6] (25 ppm in growth medium), more than 80%; in [8], less than 80%.

In the case of `COc1ccnc(C(=O)N[C@H]2COC(=O)[C@H](Cc3ccccc3)[C@@H](OC(=O)C(C)C)[C@H](C)OC2=O)c1OC(=O)OCCBr` [Compound 692], the pest or weed control at 100 ppm (in assay [1]; in the assay with Erysiphe graminis—ERYSGT (setting [11])) was less than 25% throughout. Further, the “LEPTNO in vivo 1 Day Protectant” value in [2] (setting [11]) is on record as “+ +”. Moreover, the inhibition at 25 ppm was less than 80% with Ustilago maydis (USTIMA); less than 80% in [3]; more than 80% in assay [4]; more than 80% in assay [5] (25 ppm in growth medium); more than 80% in [6] (25 ppm in growth medium); less than 80% in assay [8]. Besides, in assay [7] (setting [11]), the “PUCCRT in vivo 1 Day Protectant” value is recorded as “+ +”. In addition, in the assay on Septoria tritici—SEPTTR (setting [11]), the “SEPTTR in vivo 1 Day Protectant” value is given as “+ +”.

Consider `COc1ccnc(C(=O)N[C@@H](Cc2ccc(OCc3ccccc3)cc2)C(=O)O)c1O` [Compound 337], for which the pest or weed control at 100 ppm is less than 25% in [1], less than 25% with Erysiphe graminis—ERYSGT (setting [10]), 25 to 74% in assay [7] (setting [10]) and less than 25% in the assay with Septoria tritici—SEPTTR (setting [10]). Besides, the “LEPTNO in vivo 1 Day Protectant” value in assay [2] (setting [10]) is given as “+ +”. Also, the inhibition at 25 ppm (in the assay on Ustilago maydis (USTIMA); in [3]; in assay [4]; in assay [5] (25 ppm in growth medium); in assay [6] (25 ppm in growth medium); in [8]) was less than 80% throughout.

As for `COc1ccnc(C(=O)NC2CC(C)(C)CC(C)(C(=O)OCCC(C)(C)C)C2)c1O` (stereo not shown) [Compound 261], the pest or weed control at 100 ppm in [1] is 25 to 74%; in assay [2] (setting [12]), 25 to 74%; in the assay with Erysiphe graminis—ERYSGT (setting [12]) it was less than 25%; in assay [7] (setting [12]), 25 to 74%; in the assay with Septoria tritici—SEPTTR (setting [12]), 25 to 74%. Moreover, the inhibition at 25 ppm in the assay with Ustilago maydis (USTIMA) is less than 80%; in assay [3] it was less than 80%; in assay [4], less than 80%; in assay [5] (25 ppm in growth medium), more than 80%; in [6] (25 ppm in growth medium) it was more than 80%; in [8] it was more than 80%.

For `COc1ccnc(C(=O)N[C@H]2COC(=O)[C@H](Cc3ccccc3)[C@@H](OC(=O)C(C)C)[C@H](C)OC2=O)c1OC(=O)O[C@@H]1C[C@H](C)CC[C@H]1C(C)C` [Compound 690], the pest or weed control at 100 ppm is less than 25% in assay [1], 25 to 74% in assay [2] (setting [11]), less than 25% with Erysiphe graminis—ERYSGT (setting [11]) and 25 to 74% in [7] (setting [11]). Also, the inhibition at 25 ppm (with Ustilago maydis (USTIMA); in assay [3]; in assay [4]; in assay [5] (25 ppm in growth medium); in assay [6] (25 ppm in growth medium); in [8]) was less than 80% each time. In the assay on Septoria tritici—SEPTTR (setting [11]), the “SEPTTR in vivo 1 Day Protectant” value is “+ +”.

In the case of `COc1ccnc(C(=O)NCC2C(C=C(C)C)C2(C)C)c1O` (stereo not shown) [Compound 241], the pest or weed control at 100 ppm in [1] was less than 25%; in assay [2] (setting [12]) it was 25 to 74%; in the assay with Erysiphe graminis—ERYSGT (setting [12]) it was less than 25%; in assay [7] (setting [12]), 25 to 74%; with Septoria tritici—SEPTTR (setting [12]) it was 25 to 74%. Besides, the inhibition at 25 ppm is less than 80% with Ustilago maydis (USTIMA); more than 80% in assay [3]; less than 80% in assay [4]; less than 80% in [5] (25 ppm in growth medium); less than 80% in assay [6] (25 ppm in growth medium); more than 80% in [8].

For `COc1ccnc(C(=O)NC2CC(C)(C)CCCC2C)c1O` (stereo not shown) [Compound 277], the pest or weed control at 100 ppm in assay [1] is less than 25%; in assay [2] (setting [12]) it was 25 to 74%; in the assay on Erysiphe graminis—ERYSGT (setting [12]), less than 25%; in [7] (setting [12]) it was less than 25%. Also, the inhibition at 25 ppm with Ustilago maydis (USTIMA) was less than 80%; in assay [3], less than 80%; in [4] it was less than 80%; in [5] (25 ppm in growth medium), more than 80%; in [6] (25 ppm in growth medium), more than 80%; in [8] it was less than 80%. Besides, the “SEPTTR in vivo 1 Day Protectant” value in the assay with Septoria tritici—SEPTTR (setting [12]) is recorded as “+ +”.

`COc1ccnc(C(=O)N[C@H]2COC(=O)[C@H](Cc3ccccc3)[C@@H](OC(=O)C3CCCCC3)[C@H](C)OC2=O)c1O` [Compound 392]: the pest or weed control at 100 ppm in [1] was less than 25%; with Erysiphe graminis—ERYSGT (setting [10]) it was 25 to 74%; in assay [7] (setting [10]) it was 25 to 74%; in the assay on Septoria tritici—SEPTTR (setting [10]), 25 to 74%. Also, the “LEPTNO in vivo 1 Day Protectant” value in assay [2] (setting [10]) is listed as “+ +”. Besides, the inhibition at 25 ppm with Ustilago maydis (USTIMA) was less than 80%; in assay [3] it was less than 80%; in assay [4] it was more than 80%; in assay [5] (25 ppm in growth medium) it was more than 80%; in assay [6] (25 ppm in growth medium) it was more than 80%; in [8], less than 80%.

Take `COc1ccnc(C(=O)N[C@H]2CC3OC2[C@H](C)[C@@H](OCc2ccccc2)[C@H]3C)c1O` (stereo partly shown) [Compound 321]: the pest or weed control at 100 ppm is less than 25% in assay [1]; less than 25% in assay [2] (setting [12]); less than 25% in the assay on Erysiphe graminis—ERYSGT (setting [12]); 25 to 74% in assay [7] (setting [12]); less than 25% in the assay on Septoria tritici—SEPTTR (setting [12]). Moreover, the inhibition at 25 ppm (with Ustilago maydis (USTIMA); in assay [3]; in assay [4]; in assay [5] (25 ppm in growth medium); in [6] (25 ppm in growth medium); in assay [8]) was less than 80% each time.

For the compound `O=C(Nc1ccccc1Oc1ccc(C(F)(F)F)cc1)c1nc(Br)ccc1O` [Compound 493], the pest or weed control at 100 ppm in assay [1] is less than 25%; in [2] (setting [9]), less than 25%; with Erysiphe graminis—ERYSGT (setting [9]), less than 25%; in assay [7] (setting [9]), less than 25%; in the assay with Septoria tritici—SEPTTR (setting [9]), 25 to 74%. Besides, the inhibition at 25 ppm (with Ustilago maydis (USTIMA); in assay [3]; in assay [4]; in assay [5] (25 ppm in the growth medium); in [6] (25 ppm in the growth medium); in assay [8]) was less than 80% each time.

(Values after US6706740B2, “Fungicidal heterocyclic aromatic amides and their compositions, methods of use and preparation” (Dow AgroSciences LLC, priority 1999, dated 2004).)
